Measured values from patent publication US4001272A, “Herbicidal 2-fluoro-4-halo-phenyl-4,5,6,7-tetrahydro-2H-isoindole-1,3-diones” (E. I. Du Pont de Nemours and Company, priority 1974, dated 1977).

How the values were obtained:
Format in all cases: in vivo
squash = assay: Test A: field test, crop response of squash; conditions: seven weeks, 0 = no injury to 10 = complete kill
Source text: (§1) In test A, soybeans, peanuts, lima beans, green beans and squash were planted in a field infested with the following weed seeds: crabgrass (Digitaria sanquinalis), foxtails (Setaria spp.), barnyardgrass (Echinochloa crusgalli), pigweed (Amaranthus spp.), ragweed (Ambrosia artemisiifolia), velvetleaf (Abutilon theophrasti), purslane (Portulaca oleracea) and flower-of-an-hour (Hibiscus trionum). A 50% wettable powder formulation of 2-(4-chloro-2-fluorophenyl)-4,5,6,7-tetrahydro-2H-isoindole-1,3-dione was applied in the form of an aqueous suspension at rates of 0.125, 0.25, 0.5 and 1.0 kg/ha, each treatment replicated twice. The plots were rated for percent weed control and crop response seven weeks after treatment. Crop response was expressed on a scale of 0 = no injury to 10 = complete kill.

soybeans = assay: Test A: field test, crop response of soybeans; conditions: seven weeks, 0 = no injury to 10 = complete kill
Source text: as §1

[1] = test system: crabgrass (Digitaria sanquinalis); assay: Test B: overall spray in carrot field after weed emergence, percent control of crabgrass; conditions: six weeks after treatment, 0.1% Tween 20
Source text: (§2) Test B involved a field sown to carrots and in which the following weed species emerged naturally: crabgrass (Digitaria sanquinalis), foxtails (Setaria spp.), barnyardgrass (Echinochloa crusgalli), pigweed (Amaranthus spp.), ragweed (Ambrosia artemisiifolia), velvetleaf (Abutilon theophrasti), smartweed (Polygonum spp.) and lambsquarters (Chenopodium album). Sixteen days after sowing, when all species of weeds had emerged, the plants were sprayed overall with a 50% wettable powder formulation of 2-(4-chloro-2-fluorophenyl)4,5,6,7-tetrahydro-2H-isoindole-1,3dione (Treatment I) in the form of an aqueous suspension, at rates of 0.5, 1.0, 2.0 and 4.0 kg/ha, and with 2-(4-chlorophenyl)-4,5,6,7-tetrahydro-2H-isoindole-1,3-dione (Treatment II) in the same form and at the same rates. The spray volume was 425 l/ha. The surfactant Tween 20* was added to all treatments in a concentration of 0.1% by weight. Six weeks after treatment, visual observations were made of percent weed control obtained and, for carrots, crop response.
(§3) *Tween 20 -- A trademark of ICI of America which is the reaction product of sorbitan monolaurate with an average of 20 moles of ethylene oxide.

[2] = test system: velvetleaf (Abutilon theophrasti); assay: Test A: field test, percent weed control of velvetleaf; conditions: seven weeks after treatment
Source text: as §1

peanuts = assay: Test A: field test, crop response of peanuts; conditions: seven weeks, 0 = no injury to 10 = complete kill
Source text: as §1

foxtail (Setaria spp.) = assay: Test C: preemergence weed control in rice, foxtail; conditions: 29 days after treatment
Source text: as §1
(§4) Test C concerned preemergence weed control in rice. The field selected contained seeds of the following weed species: crabgrass (Digitaria sanquinalis), foxtail (Setaria spp.), barnyardgrass (Echinochloa crusgalli), pigweed (Amaranthus spp.), ragweed (Ambrosia artemisiifolia), velvetleaf (Abutilon theophrasti), purslane (Portulaca oleracea) and flower-of-an-hour (Hibiscus trionum). Two varieties of rice, CSM-3 and Nato, were planted at depths of both 1 and 2 cm. In addition, rice seedlings of both varieties were transplanted into the field to be treated. Immediately thereafter, the plot was treated with an aqueous suspension of 2-(4-chloro-2-fluorophenyl)-4,5,6,7-tetrahydro-2H-isoindole-1,3-dione (Treatment I) at rates of 0.125 and 0.25 kg/ha, and an aqueous suspension of 2-(4-chlorophenyl)-4,5,6,7-tetrahydro-2H-isoindole-1,3dione (Treatment II) at rates of 0.25, 0.50, 1.00 and 2.00 kg/ha. The test chemicals had been formulated as 50% wettable powders. Overall spray volume was 540 l/ha. Ratings of percent weed control obtained and crop response were made 29 days after treatment, as described for test A. The ratings are summarized in the following Table III.

naturally emerging weeds = assay: Test B: control of naturally emerging weeds, comparison of treatments
Source text: as §2, §3

[3] = test system: purslane (Portulaca oleracea); assay: Test A: field test, percent weed control of purslane; conditions: seven weeks after treatment
Source text: as §1

foxtails (Setaria spp.) = assay: Test A: field test, percent weed control of foxtails; conditions: seven weeks after treatment
Source text: as §1

[4] = test system: crabgrass (Digitaria sanquinalis); assay: Test C: preemergence weed control in rice, crabgrass; conditions: 29 days after treatment
Source text: as §1, §4

rice, variety CSM-3 = assay: Test C: crop response of rice CSM-3; conditions: 29 days, 0 = no injury to 10 = complete kill; for Crop Response, Rice CSM-3, 1 cm: planting depth 1 cm; for Crop Response, Rice CSM-3, 2 cm: planting depth 2 cm; for Crop Response, Rice CSM-3, T: transplanted
Source text: as §1, with “A 50% wettable powder formulation of 2-(4-chloro-2-fluorophenyl)-4,5,6,7-tetrahydro-2H-isoindole-1,3-dione was applied in the form of an aqueous suspension at rates of 0.125, 0.25, 0.5 and 1.0 kg/ha, each treatment replicated twice.” left out
Test C concerned preemergence weed control in rice. The field selected contained seeds of the following weed species: crabgrass (Digitaria sanquinalis), foxtail (Setaria spp.), barnyardgrass (Echinochloa crusgalli), pigweed (Amaranthus spp.), ragweed (Ambrosia artemisiifolia), velvetleaf (Abutilon theophrasti), purslane (Portulaca oleracea) and flower-of-an-hour (Hibiscus trionum). Two varieties of rice, CSM-3 and Nato, were planted at depths of both 1 and 2 cm. In addition, rice seedlings of both varieties were transplanted into the field to be treated. […] The test chemicals had been formulated as 50% wettable powders. Overall spray volume was 540 l/ha.

[5] = test system: pigweed (Amaranthus spp.); assay: Test B: overall spray in carrot field after weed emergence, percent control of pigweed; conditions: six weeks after treatment, 0.1% Tween 20
Source text: as §2, §3

O=C1C2=C(CCCC2)C(=O)N1c1ccc(Cl)cc1F [Treatment I, 2-(4-chloro-2-fluorophenyl)-4,5,6,7-tetrahydro-2H-isoindole-1,3-dione]
Crop Response, Squash (squash; 0.125 kg/ha): 2 | Crop Response, Squash (squash; 0.25 kg/ha): 2 | Crop Response, Squash (squash; 0.50 kg/ha): 6 | Crop Response, Squash (squash; 1.00 kg/ha): 9.5 | Crop Response, Soybeans (soybeans; 0.125 kg/ha): 0 | Crop Response, Soybeans (soybeans; 0.25 kg/ha): 1.5 | Crop Response, Soybeans (soybeans; 0.50 kg/ha): 3 | Crop Response, Soybeans (soybeans; 1.00 kg/ha): 7.5 | % Control, Crabgrass ([1]; 0.5 kg/ha): 60% | % Control, Crabgrass ([1]; 1.0 kg/ha): 85% | % Control, Crabgrass ([1]; 2.0 kg/ha): 90% | % Control, Crabgrass ([1]; 4.0 kg/ha): 100% | % Control, Velvetleaf ([2]; 0.125 kg/ha): 90% | % Control, Velvetleaf ([2]; 0.25 kg/ha): 99% | % Control, Velvetleaf ([2]; 0.50 kg/ha): 100% | % Control, Velvetleaf ([2]; 1.00 kg/ha): 100% | Crop Response, Peanuts (peanuts; 0.125 kg/ha): 0 | Crop Response, Peanuts (peanuts; 0.25 kg/ha): 0 | Crop Response, Peanuts (peanuts; 0.50 kg/ha): 2 | Crop Response, Peanuts (peanuts; 1.00 kg/ha): 3.5 | % Control, Foxtail (foxtail (Setaria spp.); 0.125 kg/ha): 96% | % Control, Foxtail (foxtail (Setaria spp.); 0.25 kg/ha): 100% | control of crabgrass, foxtails and barnyardgrass, in words (naturally emerging weeds; compared to Treatment II): outstanding when compared to Treatment II | % control results, in words (naturally emerging weeds; eight naturally emerging weeds, versus Treatment II): clearly superior to Treatment II | % Control, Purslane ([3]; 0.125 kg/ha): 82% | % Control, Purslane ([3]; 0.25 kg/ha): 97% | % Control, Purslane ([3]; 0.50 kg/ha): 100% | % Control, Purslane ([3]; 1.00 kg/ha): 100% | % Control, Foxtail (foxtails (Setaria spp.); 0.125 kg/ha): 40% | % Control, Foxtail (foxtails (Setaria spp.); 0.25 kg/ha): 82% | % Control, Foxtail (foxtails (Setaria spp.); 0.50 kg/ha): 95% | % Control, Foxtail (foxtails (Setaria spp.); 1.00 kg/ha): 99% | % Control, Crabgrass ([4]; 0.125 kg/ha): 96% | % Control, Crabgrass ([4]; 0.25 kg/ha): 100% | Crop Response, Rice CSM-3, 1 cm (rice, variety CSM-3; 0.125 kg/ha): 3 | Crop Response, Rice CSM-3, 2 cm (rice, variety CSM-3; 0.125 kg/ha): 0 | Crop Response, Rice CSM-3, T (rice, variety CSM-3; 0.125 kg/ha): 0 | Crop Response, Rice CSM-3, 1 cm (rice, variety CSM-3; 0.25 kg/ha): 5 | Crop Response, Rice CSM-3, 2 cm (rice, variety CSM-3; 0.25 kg/ha): 1 | Crop Response, Rice CSM-3, T (rice, variety CSM-3; 0.25 kg/ha): 0 | % Control, Pigweed ([5]; 0.5 kg/ha): 92% | % Control, Pigweed ([5]; 1.0 kg/ha): 99% | % Control, Pigweed ([5]; 2.0 kg/ha): 100% | % Control, Pigweed ([5]; 4.0 kg/ha): 100%

O=C1C2=C(CCCC2)C(=O)N1c1ccc(Cl)cc1 [Treatment II, 2-(4-chlorophenyl)-4,5,6,7-tetrahydro-2H-isoindole-1,3-dione]
% Control, Crabgrass ([1]; 0.5 kg/ha): 0% | % Control, Crabgrass ([1]; 1.0 kg/ha): 20% | % Control, Crabgrass ([1]; 2.0 kg/ha): 40% | % Control, Crabgrass ([1]; 4.0 kg/ha): 60% | % Control, Foxtail (foxtail (Setaria spp.); 0.25 kg/ha): 99% | % Control, Foxtail (foxtail (Setaria spp.); 0.50 kg/ha): 100% | % Control, Foxtail (foxtail (Setaria spp.); 1.0 kg/ha): 100% | % Control, Foxtail (foxtail (Setaria spp.); 2.0 kg/ha): 100% | % Control, Crabgrass ([4]; 0.25 kg/ha): 99% | % Control, Crabgrass ([4]; 0.50 kg/ha): 100% | % Control, Crabgrass ([4]; 1.0 kg/ha): 100% | % Control, Crabgrass ([4]; 2.0 kg/ha): 100% | Crop Response, Rice CSM-3, 1 cm (rice, variety CSM-3; 0.25 kg/ha): 4 | Crop Response, Rice CSM-3, 2 cm (rice, variety CSM-3; 0.25 kg/ha): 1 | Crop Response, Rice CSM-3, T (rice, variety CSM-3; 0.25 kg/ha): 0 | Crop Response, Rice CSM-3, 1 cm (rice, variety CSM-3; 0.50 kg/ha): 5 | Crop Response, Rice CSM-3, 2 cm (rice, variety CSM-3; 0.50 kg/ha): 2 | Crop Response, Rice CSM-3, T (rice, variety CSM-3; 0.50 kg/ha): 0 | Crop Response, Rice CSM-3, 1 cm (rice, variety CSM-3; 1.0 kg/ha): 7 | Crop Response, Rice CSM-3, 2 cm (rice, variety CSM-3; 1.0 kg/ha): 4 | Crop Response, Rice CSM-3, T (rice, variety CSM-3; 1.0 kg/ha): 0 | Crop Response, Rice CSM-3, 1 cm (rice, variety CSM-3; 2.0 kg/ha): 10 | Crop Response, Rice CSM-3, 2 cm (rice, variety CSM-3; 2.0 kg/ha): 7 | Crop Response, Rice CSM-3, T (rice, variety CSM-3; 2.0 kg/ha): 1 | % Control, Pigweed ([5]; 0.5 kg/ha): 50% | % Control, Pigweed ([5]; 1.0 kg/ha): 70% | % Control, Pigweed ([5]; 2.0 kg/ha): 90% | % Control, Pigweed ([5]; 4.0 kg/ha): 99%
